Measurements as given in patent publication US20240383901A1, “SUBSTITUTED PYRROLO[2,3-D]PYRIMIDINES, THEIR PREPARATION AND THEIR THERAPEUTIC APPLICATION” (SANOFI, priority 2021, published 2024).

Tests used:
full-length LRRK2 G2019S = biological target: T1, full-length LRRK2 G2019S (Homo sapiens, UniProt Q5S007, G2019S); test: LRRK2-G2019S kinase activity assay (Lanthascreen TR-FRET); assay type: biochemical; conditions: 1.1 mM ATP
T1 construct: DYKDDDDK (FLAG)
Protocol: (§1) The potency of compounds was evaluated in vitro using the Lanthascreen® technology (ThermoFisher Scientific).
(§2) In a typical experiment, the reaction assay buffer contains 50 mM Tris pH8.2, 1 mM EGTA, 2.5 mM MgCl2, 0.05% Triton X100, 0.15% BSA and 1 mM DTT. The detection of the assay is performed using 1 nM Terbium labeled anti-phospho-LRRKtide (ThermoFisher Scientific) diluted in a TR-FRET buffer (ThermoFisher Scientific).
(§3) The experimental procedure was performed with Greiner small volume® 384-well. […] The working solution of compounds was prepared in a separate Greiner microplate.
(§4) The kinase reaction was initiated by addition of the ATP/LRRKtide substrate mix diluted in the reaction assay buffer. The reaction mix was incubated for at least 10 minutes at room temperature (initial velocity conditions). Reaction was stopped by addition of Terbium labeled anti-phospho-LRRKtide diluted into the detection buffer supplemented with EDTA (ThermoFisher Scientific). Plates are incubated for at least 30 minutes at room temperature and read on an Envision™ multimode plate reader (PerkinElmer) with LanthaScreen™. The TR-FRET 520:495 nm emission ratio was calculated and used to determine the IC50 value from a dose response curve fit to the 4-parameter logistic equation. The activity with respect to LRRK2 kinase in this test is given by the concentration which inhibits 50% of the LRRK2 activity (or IC50) in nM.

[1] = biological target: T2, full-length LRRK2 wild type (Homo sapiens, UniProt Q5S007); test: LRRK2 WT assay (Assay A, Lanthascreen TR-FRET, 500 uM ATP); assay type: biochemical; conditions: Assay A (values without *)
T2 construct: DYDDDDK tagged full-length LRRK2 wild type is used
Protocol: as §1, §2, §3, §4

T1 sequence (Q5S007 whole entry G2019S): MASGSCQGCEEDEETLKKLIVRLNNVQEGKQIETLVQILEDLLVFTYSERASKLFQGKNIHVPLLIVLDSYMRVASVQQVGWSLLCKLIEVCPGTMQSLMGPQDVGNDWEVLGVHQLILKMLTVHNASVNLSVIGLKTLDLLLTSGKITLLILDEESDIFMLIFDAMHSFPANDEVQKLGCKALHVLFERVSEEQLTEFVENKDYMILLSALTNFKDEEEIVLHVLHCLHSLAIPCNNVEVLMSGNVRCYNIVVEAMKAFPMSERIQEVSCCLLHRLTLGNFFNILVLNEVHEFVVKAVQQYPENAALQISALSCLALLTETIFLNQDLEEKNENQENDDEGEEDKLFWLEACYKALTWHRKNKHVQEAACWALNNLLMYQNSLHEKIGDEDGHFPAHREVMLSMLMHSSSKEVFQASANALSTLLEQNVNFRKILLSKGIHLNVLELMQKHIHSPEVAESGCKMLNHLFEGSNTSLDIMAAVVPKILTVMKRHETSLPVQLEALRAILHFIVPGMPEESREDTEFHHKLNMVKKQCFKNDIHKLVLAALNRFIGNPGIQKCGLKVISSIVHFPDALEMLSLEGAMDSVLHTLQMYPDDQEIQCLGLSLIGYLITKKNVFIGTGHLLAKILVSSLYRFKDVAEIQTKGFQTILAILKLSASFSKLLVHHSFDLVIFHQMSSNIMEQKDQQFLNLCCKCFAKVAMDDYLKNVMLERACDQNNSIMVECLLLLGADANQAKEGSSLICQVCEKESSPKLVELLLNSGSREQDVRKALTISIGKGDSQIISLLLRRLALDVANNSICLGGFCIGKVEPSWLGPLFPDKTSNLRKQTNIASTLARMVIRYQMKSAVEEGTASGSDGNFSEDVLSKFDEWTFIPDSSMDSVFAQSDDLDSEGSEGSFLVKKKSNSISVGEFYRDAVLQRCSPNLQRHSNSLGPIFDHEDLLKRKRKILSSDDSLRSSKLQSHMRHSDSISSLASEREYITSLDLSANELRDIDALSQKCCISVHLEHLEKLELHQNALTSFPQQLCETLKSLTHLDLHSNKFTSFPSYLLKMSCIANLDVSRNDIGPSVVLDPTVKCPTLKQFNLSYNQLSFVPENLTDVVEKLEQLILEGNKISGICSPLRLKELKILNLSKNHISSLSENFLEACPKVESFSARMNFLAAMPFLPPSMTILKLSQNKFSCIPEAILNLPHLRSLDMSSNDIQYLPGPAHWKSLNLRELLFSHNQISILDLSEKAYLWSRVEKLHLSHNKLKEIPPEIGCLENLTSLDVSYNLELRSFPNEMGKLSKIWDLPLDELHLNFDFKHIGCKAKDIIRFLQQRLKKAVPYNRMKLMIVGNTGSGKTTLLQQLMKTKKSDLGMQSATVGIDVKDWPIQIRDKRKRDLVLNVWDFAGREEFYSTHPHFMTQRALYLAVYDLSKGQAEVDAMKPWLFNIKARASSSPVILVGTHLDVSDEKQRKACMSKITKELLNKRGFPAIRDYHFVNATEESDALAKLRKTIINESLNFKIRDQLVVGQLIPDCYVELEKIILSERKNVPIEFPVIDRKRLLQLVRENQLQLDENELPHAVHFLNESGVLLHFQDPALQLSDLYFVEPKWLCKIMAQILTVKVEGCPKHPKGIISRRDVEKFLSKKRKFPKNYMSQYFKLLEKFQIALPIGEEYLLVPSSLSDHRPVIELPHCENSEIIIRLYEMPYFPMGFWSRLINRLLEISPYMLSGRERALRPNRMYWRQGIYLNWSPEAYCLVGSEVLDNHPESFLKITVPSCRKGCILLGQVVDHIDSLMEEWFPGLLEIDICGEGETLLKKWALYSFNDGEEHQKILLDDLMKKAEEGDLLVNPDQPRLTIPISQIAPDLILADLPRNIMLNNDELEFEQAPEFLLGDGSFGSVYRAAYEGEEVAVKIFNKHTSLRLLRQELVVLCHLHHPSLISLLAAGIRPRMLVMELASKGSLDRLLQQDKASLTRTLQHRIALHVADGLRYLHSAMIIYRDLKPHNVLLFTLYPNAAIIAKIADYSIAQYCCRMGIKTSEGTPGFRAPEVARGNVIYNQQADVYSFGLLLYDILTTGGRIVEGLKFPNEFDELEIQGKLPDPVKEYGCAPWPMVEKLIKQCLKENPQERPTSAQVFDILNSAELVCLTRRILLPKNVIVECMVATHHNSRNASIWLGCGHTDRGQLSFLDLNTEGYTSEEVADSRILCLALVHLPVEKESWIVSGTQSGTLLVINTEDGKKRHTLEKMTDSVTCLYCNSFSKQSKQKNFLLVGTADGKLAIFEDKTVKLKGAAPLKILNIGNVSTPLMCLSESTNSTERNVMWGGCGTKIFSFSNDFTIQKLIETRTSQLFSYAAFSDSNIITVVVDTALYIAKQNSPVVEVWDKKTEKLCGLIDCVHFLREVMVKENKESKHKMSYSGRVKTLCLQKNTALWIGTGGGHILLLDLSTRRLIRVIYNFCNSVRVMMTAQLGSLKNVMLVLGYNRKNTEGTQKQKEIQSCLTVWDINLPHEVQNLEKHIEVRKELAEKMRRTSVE
T2 sequence (Q5S007 whole entry): as the sequence (Q5S007 whole entry G2019S) above, with S2019G counted along it

SMILES	IC50 (full-length LRRK2 G2019S) [nM]	IC50 [1] [nM]
[2H]C([2H])([2H])n1cc(Nc2ncc3cc(C#N)n(C4COCC4C)c3n2)c(OC2CCC2(C)O)n1 (mixture of isomers) [Example 142, 2-((3-((1S,2S)-2-hydroxy-2-methylcyclobutoxy)-1-(methyl-d3)-1 H-pyrazol-4-yl)amino)-7-((3R,4R)-4-methyltetrahydrofuran-3-yl)-7H-pyrrolo[2,3-d]pyrimidine-6-carbonitrile and 2-((3-((1 R,2R)-2-hydroxy-2-methylcyclobutoxy)-1-(methyl-d3)-1 H-pyrazol-4-yl)amino)-7-((3R,4R)-4-methyltetrahydrofuran-3-yl)-7H-pyrrolo[2,3-d]pyrimidine-6-carbonitrile]	5	3
COC[C@H](C)n1c(C#N)cc2cnc(Nc3cn(COC)nc3OC3CC3)nc21 [Example 92, 2-[[3-(Cyclopropoxy)-1-(methoxymethyl)pyrazol-4-yl]amino]-7-[(1S)-2-methoxy-1-methyl-ethyl]pyrrolo[2,3-d]pyrimidine-6-carbonitrile]	4	6
[2H]C([2H])([2H])n1cc(Nc2ncc3cc(C#N)n([C@@H](C)COC)c3n2)c(OC2C(C)(C)C(O)C2(C)C)n1 (single isomer, unassigned) [Example 133]	14	13
C[C@@H]1OC[C@H]1Oc1nn(C)cc1Nc1ncc2cc(C#N)n([C@H]3COC[C@@H]3C)c2n1 (single isomer, unassigned) [Example 7]	2	2
[2H]C([2H])([2H])n1cc(Nc2ncc3cc(C#N)n([C@@H](C)COC)c3n2)c(O[C@@H]2COC[C@H]2O)n1 (single isomer, unassigned) [Example 116]	50	43
CC(C(F)F)n1cc(Nc2ncc3cc(C#N)n([C@H]4COC[C@@H]4C)c3n2)c(OC2COC2)n1 (single isomer, unassigned) [Example 4]	1	1
[2H]C([2H])([2H])n1cc(Nc2ncc3cc(C#N)n([C@@H](C)COC)c3n2)c(OC2CC(O)C2(C)C)n1 (single isomer, unassigned) [Example 134]	5	3
C[C@@H]1COCC[C@H]1n1c(C#N)cc2cnc(Nc3cn(CCO)nc3OC3COC3)nc21 (single isomer, unassigned) [Example 161, 2-((1-(2-hydroxyethyl)-3-(oxetan-3-yloxy)-1 H-pyrazol-4-yl)amino)-7-(trans-3-methyltetrahydro-2H-pyran-4-yl)-7H-pyrrolo[2,3-d]pyrimidine-6-carbonitrile]	14	7
COCC(C)n1cc(Nc2ncc3cc(C#N)n(C4CCOCC4)c3n2)c(OC2CC2)n1 (single isomer, unassigned) [Example 126, 2-((3-cyclopropoxy-1-(1-methoxypropan-2-yl)-1 H-pyrazol-4-yl)amino)-7-(tetrahydro-2H-pyran-4-yl)-7H-pyrrolo[2,3-d]pyrimidine-6-carbonitrile]	83	77
CC(=O)N1CC(Oc2nn(C)cc2Nc2ncc3cc(C#N)n([C@H]4COC[C@@H]4C)c3n2)C1 [Example 1, 2-[[3-(1-acetylazetidin-3-yl)oxy-1-methyl-pyrazol-4-yl]amino]-7-[(3R,4R)-4-methyltetrahydrofuran-3-yl]pyrrolo[2,3-d]pyrimidine-6-carbonitrile]	5	6
[2H]C([2H])([2H])n1cc(Nc2ncc3cc(C#N)n([C@H]4COC[C@@H]4C)c3n2)c(O[C@H]2CO[C@H]2C)n1 (single isomer, unassigned) [Example 23]	8	10
[2H]C([2H])([2H])n1cc(Nc2ncc3cc(C#N)n([C@@H](C)COC)c3n2)c(O[C@@H]2CO[C@H]2C)n1 (single isomer, unassigned) [Example 90]	8	16
COC[C@H](C)n1c(C#N)cc2cnc(Nc3cn(C)nc3O[C@@H]3CO[C@H]3C)nc21 (single isomer, unassigned) [Example 87]		8
C[C@H]1COC[C@H]1n1c(C#N)cc2cnc(Nc3cn(C)nc3OC3COC3)nc21 (single isomer, unassigned) [Example 45, 2-((1-methyl-3-(oxetan-3-yloxy)-1 H-pyrazol-4-yl)amino)-7-((cis)-4-methyltetrahydrofuran-3-yl)-7H-pyrrolo[2,3-d]pyrimidine-6-carbonitrile]	35	46
CC(Oc1nn(C)cc1Nc1ncc2cc(C#N)n([C@H]3COC[C@@H]3C)c2n1)C(F)(F)F (single isomer, unassigned) [Example 21]	1	1
[2H]C([2H])([2H])n1cc(Nc2ncc3cc(C#N)n([C@H]4COC[C@@H]4C)c3n2)c(OC2COC2(C)C)n1 (single isomer, unassigned) [Example 118]	29	14
CC(CO)n1cc(Nc2ncc3cc(C#N)n([C@H]4COC[C@@H]4C)c3n2)c(OC2COC2)n1 (stereo partly drawn) [Example 9, 2-[[1-[2-Hydroxy-1-methyl-ethyl]-3-(oxetan-3-yloxy)pyrazol-4-yl]amino]-7-[(3R,4R)-4-methyltetrahydrofuran-3-yl]pyrrolo[2,3-d]pyrimidine-6-carbonitrile]	5	5
CO[C@H]1COC[C@H]1n1c(C#N)cc2cnc(Nc3ccc(C(C)(C)O)cc3OC3COC3)nc21 [Example 55, 2-((4-(2-Hydroxypropan-2-yl)-2-(oxetan-3-yloxy)phenyl)amino)-7-((3R,4R)-4-methoxytetrahydrofuran-3-yl)-7H-pyrrolo[2,3-d]pyrimidine-6-carbonitrile]	18	41
C[C@@H]1COC[C@H]1Oc1nn(C)cc1Nc1ncc2cc(C#N)n([C@H]3COC[C@@H]3C)c2n1 (single isomer, unassigned) [Example 3]	4	5
C[C@H]1COC[C@@H]1n1c(C#N)cc2cnc(Nc3cn(C)nc3OC3COC3)nc21 [Example 8, 2-[[1-methyl-3-(oxetan-3-yloxy)pyrazol-4-yl]amino]-7-[(3R,4R)-4-methyltetrahydrofuran-3-yl]pyrrolo[2,3-d]pyrimidine-6-carbonitrile]	4	6
C[C@H]1COC[C@@H]1n1c(C#N)cc2cnc(Nc3cn(C4COC4)nc3OC3CC3)nc21 [Example 30, 2-((3-Cyclopropoxy-1-(oxetan-3-yl)-1H-pyrazol-4-yl)amino)-7-((3R,4R)-4-methyltetrahydrofuran-3-yl)-7H-pyrrolo[2,3-d]pyrimidine-6-carbonitrile]	3	5
C[C@H]1COC[C@@H]1n1c(C#N)cc2cnc(Nc3ccc(C(C)(C)O)cc3OC3COC3)nc21 [Example 20, 2-((4-(2-Hydroxypropan-2-yl)-2-(oxetan-3-yloxy)phenyl)amino)-7-((3R,4R)-4-methyltetrahydrofuran-3-yl)-7H-pyrrolo[2,3-d]pyrimidine-6-carbonitrile]	3	3
COC[C@H](C)n1c(C#N)cc2cnc(Nc3ccc(C(C)(C)O)cc3OC3CC3)nc21 [Example 154, (S)-2-((2-cyclopropoxy-4-(2-hydroxypropan-2-yl)phenyl)amino)-7-(1-methoxypropan-2-yl)-7H-pyrrolo[2,3-d]pyrimidine-6-carbonitrile]	1	2
COCn1cc(Nc2ncc3cc(C#N)n([C@H]4COC[C@@H]4C)c3n2)c(OC2COC2)n1 [Example 33, 2-((1-(Methoxymethyl)-3-(oxetan-3-yloxy)-1H-pyrazol-4-yl)amino)-7-((3R,4R)-4-methyltetrahydrofuran-3-yl)-7H-pyrrolo[2,3-d]pyrimidine-6-carbonitrile]	9	14
CC(Oc1nn(C2COC2)cc1Nc1ncc2cc(C#N)n([C@H]3COC[C@@H]3C)c2n1)C(F)(F)F (single isomer, unassigned) [Example 11]	19	27
[2H]C([2H])([2H])n1cc(Nc2ncc3cc(C#N)n([C@H]4COC[C@@H]4C)c3n2)c(OC2COC2)n1 [Example 19, 2-((1-(Methyl-d3)-3-(oxetan-3-yloxy)-1 H-pyrazol-4-yl)amino)-7-((3R,4R)-4-methyltetrahydrofuran-3-yl)-7H-pyrrolo[2,3-d]pyrimidine-6-carbonitrile]	5	5
COCC(C)n1c(C#N)cc2cnc(Nc3cn(C4CCC(C)(O)CC4)nc3OC3CC3)nc21 [Example 107, trans-2-((3-cyclopropoxy-1-(4-hydroxy-4-methylcyclohexyl)-1H-pyrazol-4-yl)amino)-7-((S)-1-methoxypropan-2-yl)-7H-pyrrolo[2,3-d]pyrimidine-6-carbonitrile]	81	90
[2H]C([2H])([2H])n1cc(Nc2ncc3cc(C#N)n([C@@H](C)COC)c3n2)c(O[C@@H]2CO[C@H]2C)n1 (single isomer, unassigned) [Example 89]		9
